Test results published in ChEMBL document CHEMBL4715821, “Discovery of 4-ethoxy-7H-pyrrolo[2,3-d]pyrimidin-2-amines as potent, selective and orally bioavailable LRRK2 inhibitors” (Bioorg Med Chem Lett, 2018).

Columns and labels:
[1] = molecular target: Receptor-interacting serine/threonine-protein kinase 2 (Homo sapiens) (UniProt O43353); experiment: Inhibition of wild-type human partial length RIPK2 (M1 to K310 residues) expressed in bacterial expression system assessed as residual activity at 1 uM by Kinomescan method relative to control
[2] = molecular target: Vascular endothelial growth factor receptor 1 (Homo sapiens) (UniProt P17948); experiment: Inhibition of wild-type human partial length FLT1 (R781 to F1239 residues) expressed in bacterial expression system assessed as residual activity at 1 uM by Kinomescan method relative to control
[3] = molecular target: Serine/threonine-protein kinase PLK3 (Homo sapiens) (UniProt Q9H4B4); experiment: Inhibition of wild-type human partial length PLK3 (A42 to L334 residues) expressed in mammalian expression system assessed as residual activity at 1 uM by Kinomescan method relative to control
[4] = molecular target: Serine/threonine-protein kinase WNK1 (Homo sapiens) (UniProt Q9H4A3); experiment: Inhibition of wild-type human partial length WNK1 (Q194 to A490 residues) expressed in mammalian expression system assessed as residual activity at 1 uM by Kinomescan method relative to control
[5] = molecular target: Muscle, skeletal receptor tyrosine-protein kinase (Homo sapiens) (UniProt O15146); experiment: Inhibition of wild-type human partial length MUSK (M553 to V869 residues) expressed in bacterial expression system assessed as residual activity at 1 uM by Kinomescan method relative to control
[6] = molecular target: Focal adhesion kinase 1 (Homo sapiens) (UniProt Q05397); experiment: Inhibition of wild-type human partial length FAK (D402 to R696 residues) expressed in bacterial expression system assessed as residual activity at 1 uM by Kinomescan method relative to control
[7] = molecular target: Bone morphogenetic protein receptor type-2 (Homo sapiens) (UniProt Q13873); experiment: Inhibition of wild-type human partial length BMPR2 (R179 to Q526 residues) expressed in mammalian expression system assessed as residual activity at 1 uM by Kinomescan method relative to control
[8] = molecular target: Serine/threonine-protein kinase DCLK1 (Homo sapiens) (UniProt O15075); experiment: Inhibition of wild-type human partial length DCAMKL1 (L270 to A662 residues) expressed in mammalian expression system assessed as residual activity at 1 uM by Kinomescan method relative to control
[9] = molecular target: Inhibitor of nuclear factor kappa-B kinase subunit beta (Homo sapiens) (UniProt O14920); experiment: Inhibition of wild-type human full length IKK-beta (M1 to S756 residues) expressed in mammalian expression system assessed as residual activity at 1 uM by Kinomescan method relative to control
[10] = molecular target: Testis-specific serine/threonine-protein kinase 1 (Homo sapiens) (UniProt Q9BXA7); experiment: Inhibition of wild-type human full length TSSK1B (M1 to Q367 residues) expressed in bacterial expression system assessed as residual activity at 1 uM by Kinomescan method relative to control
[11] = molecular target: Serine/threonine-protein kinase ULK2 (Homo sapiens) (UniProt Q8IYT8); experiment: Inhibition of wild-type human partial length ULK2 (M1 to S301 residues) expressed in mammalian expression system assessed as residual activity at 1 uM by Kinomescan method relative to control
[12] = molecular target: Calcium/calmodulin-dependent protein kinase type 1 (Homo sapiens) (UniProt Q14012); experiment: Inhibition of wild-type human full length CAMK1A (M1 to L370 residues) expressed in bacterial expression system assessed as residual activity at 1 uM by Kinomescan method relative to control
[13] = molecular target: Insulin receptor (Homo sapiens) (UniProt P06213); experiment: Inhibition of IR (unknown origin)assessed as residual activity at 1 uM by Kinomescan method relative to control
[14] = molecular target: Wee1-like protein kinase (Homo sapiens) (UniProt P30291); experiment: Inhibition of wild-type human partial length WEE1 (M291 to K575 residues) expressed in bacterial expression system assessed as residual activity at 1 uM by Kinomescan method relative to control
[15] = molecular target: Ephrin type-B receptor 2 (Homo sapiens) (UniProt P29323); experiment: Inhibition of wild-type human partial length EPHB2 (I597 to L902 residues) expressed in bacterial expression system assessed as residual activity at 1 uM by Kinomescan method relative to control
[16] = molecular target: RAC-alpha serine/threonine-protein kinase (Homo sapiens) (UniProt P31749); experiment: Inhibition of wild-type human partial length AKT1 expressed in bacterial expression system assessed as residual activity at 1 uM by Kinomescan method relative to control
[17] = molecular target: Serine/threonine-protein kinase 33 (Homo sapiens) (UniProt Q9BYT3); experiment: Inhibition of wild-type human full length STK33 (M1 to L514 residues) expressed in bacterial expression system assessed as residual activity at 1 uM by Kinomescan method relative to control
[18] = molecular target: Rhodopsin kinase GRK1 (Homo sapiens) (UniProt Q15835); experiment: Inhibition of wild-type human full length GRK1 (M1 to S563 residues) expressed in mammalian expression system assessed as residual activity at 1 uM by Kinomescan method relative to control
[19] = molecular target: Serine/threonine-protein kinase ULK1 (Homo sapiens) (UniProt O75385); experiment: Inhibition of wild-type human partial length ULK1 (M1 to T309 residues) expressed in mammalian expression system assessed as residual activity at 1 uM by Kinomescan method relative to control
[20] = molecular target: Receptor-interacting serine/threonine-protein kinase 3 (Homo sapiens) (UniProt Q9Y572); experiment: Inhibition of wild-type human partial length RIPK3 (M1 to Q307 residues) expressed in bacterial expression system assessed as residual activity at 1 uM by Kinomescan method relative to control
[21] = molecular target: BDNF/NT-3 growth factors receptor (Homo sapiens) (UniProt Q16620); experiment: Inhibition of wild-type human partial length TRKB (Q547 to G838 residues) expressed in mammalian expression system assessed as residual activity at 1 uM by Kinomescan method relative to control
[22] = molecular target: STE20-like serine/threonine-protein kinase (Homo sapiens) (UniProt Q9H2G2); experiment: Inhibition of wild-type human partial length SLK (S14 to A307 residues) expressed in bacterial expression system assessed as residual activity at 1 uM by Kinomescan method relative to control
[23] = molecular target: Dual specificity protein kinase CLK4 (Homo sapiens) (UniProt Q9HAZ1); experiment: Inhibition of wild-type human partial length CLK4 (R135 to K481 residues) expressed in bacterial expression system assessed as residual activity at 1 uM by Kinomescan method relative to control
[24] = molecular target: Protein kinase C eta type (Homo sapiens) (UniProt P24723); experiment: Inhibition of PKCeta (unknown origin) assessed as residual activity at 1 uM by Kinomescan method relative to control
[25] = molecular target: G protein-coupled receptor kinase 6 (Homo sapiens) (UniProt P43250); experiment: Inhibition of GRK6 (unknown origin) assessed as residual activity at 1 uM by Kinomescan method relative to control
[26] = molecular target: Cyclin-dependent kinase 5/CDK5 activator 1 (Homo sapiens) (UniProt Q00535+Q15078); experiment: Inhibition of wild-type human full length CDK5 (M1 to P292 residues)/p25 expressed in bacterial expression system assessed as residual activity at 1 uM by Kinomescan method relative to control
Chain of Cyclin-dependent kinase 5/CDK5 activator 1 (Homo sapiens) (Q00535 whole entry, the tested form may be a part): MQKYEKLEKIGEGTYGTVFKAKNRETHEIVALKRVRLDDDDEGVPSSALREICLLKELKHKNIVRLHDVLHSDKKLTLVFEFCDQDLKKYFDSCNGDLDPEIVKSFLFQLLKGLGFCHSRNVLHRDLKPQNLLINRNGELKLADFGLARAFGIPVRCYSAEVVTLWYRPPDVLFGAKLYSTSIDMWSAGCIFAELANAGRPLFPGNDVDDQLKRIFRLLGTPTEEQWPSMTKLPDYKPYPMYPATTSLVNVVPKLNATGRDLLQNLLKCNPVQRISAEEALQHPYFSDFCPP
Chain of Cyclin-dependent kinase 5/CDK5 activator 1 (Homo sapiens) (Q15078 99-307 partner limits assumed): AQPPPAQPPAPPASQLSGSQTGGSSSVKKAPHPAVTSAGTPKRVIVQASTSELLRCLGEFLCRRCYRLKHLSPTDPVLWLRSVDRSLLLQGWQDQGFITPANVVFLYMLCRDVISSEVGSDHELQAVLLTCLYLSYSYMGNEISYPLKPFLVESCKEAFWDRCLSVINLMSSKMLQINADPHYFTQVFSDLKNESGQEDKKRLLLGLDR

Chain of Serine/threonine-protein kinase DCLK1 (Homo sapiens) (O15075 whole entry, the tested form may be a part): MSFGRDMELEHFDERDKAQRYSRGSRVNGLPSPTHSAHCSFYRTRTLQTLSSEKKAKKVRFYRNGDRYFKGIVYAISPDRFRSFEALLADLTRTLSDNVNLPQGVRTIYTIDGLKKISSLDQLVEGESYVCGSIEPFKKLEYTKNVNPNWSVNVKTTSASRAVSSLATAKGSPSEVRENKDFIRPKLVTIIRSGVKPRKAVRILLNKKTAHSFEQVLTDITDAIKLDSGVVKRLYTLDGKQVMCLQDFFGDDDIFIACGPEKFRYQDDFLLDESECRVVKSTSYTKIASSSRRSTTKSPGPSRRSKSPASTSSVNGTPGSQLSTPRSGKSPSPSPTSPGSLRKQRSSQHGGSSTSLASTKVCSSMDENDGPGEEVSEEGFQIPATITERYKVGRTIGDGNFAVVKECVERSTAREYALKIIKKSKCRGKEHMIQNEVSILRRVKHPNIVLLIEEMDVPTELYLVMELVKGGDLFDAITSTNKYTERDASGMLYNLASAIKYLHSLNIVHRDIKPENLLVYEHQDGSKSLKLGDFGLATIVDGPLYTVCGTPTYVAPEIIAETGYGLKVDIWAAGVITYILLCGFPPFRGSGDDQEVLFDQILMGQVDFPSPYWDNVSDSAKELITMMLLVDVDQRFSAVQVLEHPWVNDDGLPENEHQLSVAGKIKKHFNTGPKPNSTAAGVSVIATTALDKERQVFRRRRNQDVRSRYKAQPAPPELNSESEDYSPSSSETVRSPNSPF
Chain of Receptor-interacting serine/threonine-protein kinase 2 (Homo sapiens) (O43353 whole entry, the tested form may be a part): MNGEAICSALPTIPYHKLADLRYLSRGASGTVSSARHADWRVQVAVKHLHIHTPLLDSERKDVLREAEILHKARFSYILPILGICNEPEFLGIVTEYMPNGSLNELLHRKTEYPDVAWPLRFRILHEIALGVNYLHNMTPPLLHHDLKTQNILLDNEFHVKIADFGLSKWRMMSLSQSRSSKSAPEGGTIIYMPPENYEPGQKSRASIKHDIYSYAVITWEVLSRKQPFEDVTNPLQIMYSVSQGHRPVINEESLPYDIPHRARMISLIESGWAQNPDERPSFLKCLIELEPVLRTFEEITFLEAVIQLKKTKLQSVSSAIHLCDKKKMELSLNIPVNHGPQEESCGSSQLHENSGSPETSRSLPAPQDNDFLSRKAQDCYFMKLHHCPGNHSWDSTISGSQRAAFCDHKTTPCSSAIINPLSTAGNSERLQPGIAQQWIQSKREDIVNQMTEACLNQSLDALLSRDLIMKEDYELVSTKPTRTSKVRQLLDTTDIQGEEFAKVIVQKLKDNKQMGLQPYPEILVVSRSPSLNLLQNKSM
Chain of Testis-specific serine/threonine-protein kinase 1 (Homo sapiens) (Q9BXA7 whole entry, the tested form may be a part): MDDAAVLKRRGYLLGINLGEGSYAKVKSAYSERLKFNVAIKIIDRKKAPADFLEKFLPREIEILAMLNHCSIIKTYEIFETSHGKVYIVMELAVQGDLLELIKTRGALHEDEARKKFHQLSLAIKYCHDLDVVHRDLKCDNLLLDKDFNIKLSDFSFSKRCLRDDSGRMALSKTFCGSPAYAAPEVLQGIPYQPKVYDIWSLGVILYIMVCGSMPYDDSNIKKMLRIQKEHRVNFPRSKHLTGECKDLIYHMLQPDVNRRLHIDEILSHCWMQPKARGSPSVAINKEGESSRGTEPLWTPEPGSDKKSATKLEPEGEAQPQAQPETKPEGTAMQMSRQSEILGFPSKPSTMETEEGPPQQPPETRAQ
Chain of Focal adhesion kinase 1 (Homo sapiens) (Q05397 2-1052 limits assumed): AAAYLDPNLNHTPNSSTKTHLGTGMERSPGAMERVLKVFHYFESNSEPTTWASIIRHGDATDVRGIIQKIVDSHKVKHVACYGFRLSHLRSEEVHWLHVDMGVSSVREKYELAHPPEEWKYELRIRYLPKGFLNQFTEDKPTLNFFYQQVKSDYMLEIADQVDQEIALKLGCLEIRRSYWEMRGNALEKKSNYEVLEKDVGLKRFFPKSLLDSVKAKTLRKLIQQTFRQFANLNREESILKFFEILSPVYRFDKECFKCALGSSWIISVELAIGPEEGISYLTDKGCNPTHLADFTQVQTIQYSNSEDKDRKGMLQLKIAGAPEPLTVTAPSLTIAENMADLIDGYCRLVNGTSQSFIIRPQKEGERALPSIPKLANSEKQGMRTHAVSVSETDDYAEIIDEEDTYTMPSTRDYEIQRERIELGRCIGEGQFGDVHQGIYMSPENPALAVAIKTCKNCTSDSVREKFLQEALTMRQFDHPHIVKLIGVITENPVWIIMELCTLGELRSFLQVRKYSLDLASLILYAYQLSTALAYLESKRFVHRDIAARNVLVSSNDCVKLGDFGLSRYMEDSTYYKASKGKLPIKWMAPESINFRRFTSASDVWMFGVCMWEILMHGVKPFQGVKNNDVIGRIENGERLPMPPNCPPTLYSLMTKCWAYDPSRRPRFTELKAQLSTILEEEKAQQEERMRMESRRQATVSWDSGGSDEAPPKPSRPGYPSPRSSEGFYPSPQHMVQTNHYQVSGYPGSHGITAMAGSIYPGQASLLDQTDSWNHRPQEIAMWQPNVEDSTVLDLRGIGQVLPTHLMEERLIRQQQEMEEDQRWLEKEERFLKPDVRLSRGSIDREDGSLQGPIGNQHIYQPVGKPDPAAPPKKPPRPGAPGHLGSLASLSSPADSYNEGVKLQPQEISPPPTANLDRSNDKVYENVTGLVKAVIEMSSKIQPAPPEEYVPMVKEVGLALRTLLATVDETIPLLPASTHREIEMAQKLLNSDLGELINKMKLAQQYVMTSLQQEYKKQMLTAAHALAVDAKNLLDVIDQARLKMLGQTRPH
Chain of Serine/threonine-protein kinase ULK2 (Homo sapiens) (Q8IYT8 whole entry, the tested form may be a part): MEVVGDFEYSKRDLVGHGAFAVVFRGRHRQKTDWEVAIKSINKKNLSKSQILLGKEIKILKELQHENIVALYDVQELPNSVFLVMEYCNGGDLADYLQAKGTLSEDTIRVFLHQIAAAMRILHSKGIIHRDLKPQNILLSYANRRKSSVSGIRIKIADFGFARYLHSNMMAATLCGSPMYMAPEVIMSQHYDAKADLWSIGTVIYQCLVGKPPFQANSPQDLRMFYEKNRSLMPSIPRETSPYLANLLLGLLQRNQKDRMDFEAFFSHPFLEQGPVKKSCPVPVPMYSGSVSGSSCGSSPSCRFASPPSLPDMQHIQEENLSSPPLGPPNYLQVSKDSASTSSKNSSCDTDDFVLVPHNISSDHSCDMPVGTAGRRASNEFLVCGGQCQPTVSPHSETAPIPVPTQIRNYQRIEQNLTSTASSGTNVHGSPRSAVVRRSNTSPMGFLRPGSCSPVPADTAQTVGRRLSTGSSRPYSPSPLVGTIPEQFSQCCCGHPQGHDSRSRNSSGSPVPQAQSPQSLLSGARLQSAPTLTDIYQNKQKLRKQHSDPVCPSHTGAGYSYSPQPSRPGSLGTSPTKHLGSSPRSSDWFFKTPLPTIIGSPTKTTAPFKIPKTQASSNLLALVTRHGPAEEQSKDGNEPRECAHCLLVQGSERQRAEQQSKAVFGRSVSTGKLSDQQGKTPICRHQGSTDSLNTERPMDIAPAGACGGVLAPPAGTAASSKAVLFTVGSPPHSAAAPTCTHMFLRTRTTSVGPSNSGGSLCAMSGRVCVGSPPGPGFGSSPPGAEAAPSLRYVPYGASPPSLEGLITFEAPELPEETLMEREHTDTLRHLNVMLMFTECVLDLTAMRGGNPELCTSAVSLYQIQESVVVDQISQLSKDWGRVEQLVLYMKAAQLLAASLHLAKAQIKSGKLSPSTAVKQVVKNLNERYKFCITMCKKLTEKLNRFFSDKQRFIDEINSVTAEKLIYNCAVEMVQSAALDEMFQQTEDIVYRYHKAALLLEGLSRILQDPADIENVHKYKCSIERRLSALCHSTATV
Chain of G protein-coupled receptor kinase 6 (Homo sapiens) (P43250 whole entry, looked up, the tested form may be a part): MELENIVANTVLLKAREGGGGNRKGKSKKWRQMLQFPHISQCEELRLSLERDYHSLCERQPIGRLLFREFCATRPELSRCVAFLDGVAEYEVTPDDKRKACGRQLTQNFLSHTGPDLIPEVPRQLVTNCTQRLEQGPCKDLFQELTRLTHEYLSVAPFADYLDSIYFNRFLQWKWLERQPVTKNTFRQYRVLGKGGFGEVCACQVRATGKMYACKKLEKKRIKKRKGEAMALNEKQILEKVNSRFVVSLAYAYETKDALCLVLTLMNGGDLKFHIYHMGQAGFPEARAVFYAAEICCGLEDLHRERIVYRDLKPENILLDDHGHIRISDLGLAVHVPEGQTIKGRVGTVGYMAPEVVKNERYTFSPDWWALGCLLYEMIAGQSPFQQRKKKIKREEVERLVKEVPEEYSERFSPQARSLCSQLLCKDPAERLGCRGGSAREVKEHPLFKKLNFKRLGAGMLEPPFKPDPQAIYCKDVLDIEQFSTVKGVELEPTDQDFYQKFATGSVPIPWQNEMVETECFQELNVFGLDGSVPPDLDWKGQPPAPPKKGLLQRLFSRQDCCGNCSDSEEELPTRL

In the case of `CCOc1nc(Nc2ccc(C(=O)N3CCOCC3)cc2OC)nc2[nH]ccc12`, the Activity [1] is reported as 91.7%, the Activity [2] is reported as 97.5% and the Activity [3] is reported as 88.1%. It also gave an Activity [4] of 78.5%, an Activity [5] of 72.9% and an Activity [6] of 39.5%. For the same compound, the Activity [7] was 72.2%, the Activity [8] was 86.5% and the Activity [9] was 101%. The Activity [10] was 2.41%, the Activity [11] was 101% and the Activity [12] was 85.9%. The Activity [13] was 14.9%, the Activity [14] was 98.3% and the Activity [15] was 95.3%. It also gave an Activity [16] of 104%, an Activity [17] of 49.5% and an Activity [18] of 95.2%. It also gave an Activity [19] of 86.1%, an Activity [20] of 108% and an Activity [21] of 102%. The Activity [22] was 109%, the Activity [23] was 35.5% and the Activity [24] was 99.2%. The Activity [25] was 95.6% and the Activity [26] was 85.8%.
